ChEMBL document CHEMBL3044779, “The action of herbicides on fatty acid biosynthesis and elongation in barley and cucumber” (Pest Manag Sci, 2010)
Calls of active or inactive are those of the source. The rule behind the calls is not given here.

What was measured:
[1] = system: Hordeum vulgare; assay: Inhibition of fatty acid synthesis in Hordeum vulgare (barley) using [14C]acetate assessed as reduction in [14C]-labeled 24C fatty acid level at 300 uM after 3 hr by liquid scintillation counting; assay type: functional, organism-based
[2] = system: Hordeum vulgare; assay: Inhibition of fatty acid synthesis in Hordeum vulgare (barley) using [14C]acetate assessed as reduction in [14C]-labeled 22C fatty acid level at 300 uM after 3 hr by liquid scintillation counting; assay type: functional, organism-based
[3] = system: Cucumis sativus; assay: Inhibition of fatty acid synthesis in Cucumis sativus (cucumber) using [14C]acetate assessed as reduction in [14C]-labeled 20C fatty acid level at 300 uM after 3 hr by liquid scintillation counting relative to control; assay type: functional, organism-based
[4] = system: Hordeum vulgare; assay: Inhibition of fatty acid synthesis in Hordeum vulgare (barley) using [14C]acetate assessed as reduction in [14C]-labeled 20C fatty acid level at 300 uM after 3 hr by liquid scintillation counting; assay type: functional, organism-based
[5] = system: Cucumis sativus; assay: Inhibition of fatty acid synthesis in Cucumis sativus (cucumber) using [14C]acetate assessed as [14C]-labeled 18C fatty acid level at 300 uM after 3 hr by liquid scintillation counting (reference value: 33.5 +/- 1.5%); assay type: functional; design: scale not given: the % may be the effect or the level left
[6] = system: Hordeum vulgare; assay: Inhibition of fatty acid synthesis in Hordeum vulgare (barley) using [14C]acetate assessed as [14C]-labeled 18C fatty acid level at 300 uM after 3 hr by liquid scintillation counting (reference value: 57 +/- 0.9%); assay type: functional; design: scale not given: the % may be the effect or the level left
[7] = system: Cucumis sativus; assay: Inhibition of fatty acid synthesis in Cucumis sativus (cucumber) using [14C]acetate assessed as [14C]-labeled 16C fatty acid level at 300 uM after 3 hr by liquid scintillation counting (reference value: 27.6 +/- 5.1%); assay type: functional; design: scale not given: the % may be the effect or the level left
[8] = system: Hordeum vulgare; assay: Inhibition of fatty acid synthesis in Hordeum vulgare (barley) using [14C]acetate assessed as [14C]-labeled 16C fatty acid level at 300 uM after 3 hr by liquid scintillation counting (reference value: 30.6 +/- 0.2%); assay type: functional; design: scale not given: the % may be the effect or the level left
[9] = system: Cucumis sativus; assay: (§1) Inhibition of fatty acid synthesis in Cucumis sativus (cucumber) assessed as inhibition of [14C]acetate incoporation in total fatty acids at 300 uM measured as total disintegration per g of fresh weight after 3 hr by liquid scintillation counting (reference value: 4.4 +/- 1 dpm x 10^6 g'1 fresh wt); assay type: functional
[10] = system: Hordeum vulgare; assay: Inhibition of fatty acid synthesis in Hordeum vulgare (barley) assessed as inhibition of [14C]acetate incoporation in total fatty acids at 300 uM measured as total disintegration per g of fresh weight after 3 hr by liquid scintillation counting (reference value: 5.8 +/- 1.6 dpm x 10^6 g'1 fresh wt); assay type: functional
[11] = system: Hordeum vulgare; assay: Inhibition of fatty acid synthesis in Hordeum vulgare (barley) using [14C]malonate assessed as [14C]-labeled 18C fatty acid level at 300 uM after 3 hr by liquid scintillation counting (reference value: 12.5 +/- 3.9 %); assay type: functional; design: scale not given: the % may be the effect or the level left
[12] = system: Cucumis sativus; assay: Inhibition of fatty acid synthesis in Cucumis sativus (cucumber) using [14C]malonate assessed as [14C]-labeled 16C fatty acid level at 300 uM after 3 hr by liquid scintillation counting (reference value: 5.1 +/- 0.9%); assay type: functional; design: scale not given: the % may be the effect or the level left
[13] = system: Hordeum vulgare; assay: Inhibition of fatty acid synthesis in Hordeum vulgare (barley) using [14C]malonate assessed as [14C]-labeled 16C fatty acid level at 300 uM after 3 hr by liquid scintillation counting (reference value: 8.1 %); assay type: functional; design: scale not given: the % may be the effect or the level left
[14] = system: Cucumis sativus; assay: Inhibition of fatty acid synthesis in Cucumis sativus (cucumber) using [14C]malonate assessed as [14C]-labeled 24C fatty acid level at 300 uM after 3 hr by liquid scintillation counting (reference value: 26.4 +/- 5.5%); assay type: functional; design: scale not given: the % may be the effect or the level left
[15] = system: Hordeum vulgare; assay: Inhibition of fatty acid synthesis in Hordeum vulgare (barley) using [14C]malonate assessed as [14C]-labeled 24C fatty acid level at 300 uM after 3 hr by liquid scintillation counting (reference value: 16.2 +/- 1.1 %); assay type: functional; design: scale not given: the % may be the effect or the level left
[16] = system: Cucumis sativus; assay: Inhibition of fatty acid synthesis in Cucumis sativus (cucumber) using [14C]malonate assessed as [14C]-labeled 22C fatty acid level at 300 uM after 3 hr by liquid scintillation counting (reference value: 42.5 +/- 0.6%); assay type: functional; design: scale not given: the % may be the effect or the level left
[17] = system: Hordeum vulgare; assay: Inhibition of fatty acid synthesis in Hordeum vulgare (barley) using [14C]malonate assessed as [14C]-labeled 22C fatty acid level at 300 uM after 3 hr by liquid scintillation counting (reference value: 32.8 +/- 2.3%); assay type: functional; design: scale not given: the % may be the effect or the level left
[18] = system: Cucumis sativus; assay: Inhibition of fatty acid synthesis in Cucumis sativus (cucumber) using [14C]malonate assessed as [14C]-labeled 20C fatty acid level at 300 uM after 3 hr by liquid scintillation counting (reference value: 11.7 +/- 2%); assay type: functional; design: scale not given: the % may be the effect or the level left
[19] = system: Hordeum vulgare; assay: Inhibition of fatty acid synthesis in Hordeum vulgare (barley) using [14C]malonate assessed as [14C]-labeled 20C fatty acid level at 300 uM after 3 hr by liquid scintillation counting (reference value: 6.5 +/- 3.1 %); assay type: functional; design: scale not given: the % may be the effect or the level left
[20] = system: Cucumis sativus; assay: Inhibition of fatty acid synthesis in Cucumis sativus (cucumber) using [14C]malonate assessed as [14C]-labeled 18C fatty acid level at 300 uM after 3 hr by liquid scintillation counting (reference value: 14.3 +/- 2%); assay type: functional; design: scale not given: the % may be the effect or the level left
[21] = system: Cucumis sativus; assay: as §1, with “of [14C]malonate” for “of [14C]acetate”, “value: 16.3” for “value: 4.4”, “+/- 1.1” for “+/- 1”; assay type: functional
[22] = system: Hordeum vulgare; assay: Inhibition of fatty acid synthesis in Hordeum vulgare (barley) assessed as inhibition of [14C]malonate incoporation in total fatty acids at 300 uM measured as total disintegration per g of fresh weight after 3 hr by liquid scintillation counting (reference value: 9.4 +/- 2.5 dpm x 10^6 g'1 fresh wt); assay type: functional

COCCN(C(=O)CCl)c1c(C)cccc1C [DIMETHACHLOR]
inhibition [1]: Active
inhibition [2]: Active
inhibition [3]: Active
inhibition [4]: Active
Activity [5]: 63.9%
Activity [6]: 63.9%
Activity [7]: 36.2%
Activity [8]: 36.1%
Activity [9]: 2.9 ×10⁶ dpm
Activity [10]: 5.9 ×10⁶ dpm
Activity [11]: 7.3%
Activity [12]: 20.4%
Activity [13]: 14%
Activity [14]: 9.3%
Activity [15]: 5.8%
Activity [16]: 12.5%
Activity [17]: 18.1%
Activity [18]: 11.2%
Activity [19]: 8.5%
Activity [20]: 46.8%
Activity [21]: 9.4 ×10⁶ dpm
Activity [22]: 6.8 ×10⁶ dpm
